Experimental data reported in patent publication US9012489B2, “Phenyl-3-aza-bicyclo[3.1.0]hex-3-yl-methanones and the use thereof as medicament” (Boehringer Ingelheim International GmbH, priority 2011, dated 2015).

Target: T1, GlyT1 transporter (Homo sapiens, UniProt P48067)
T1 construct: endogenously expressing the GlyT1 transporter; host or cells: SK-N-MC human neuroblastoma cells
T1 sequence (P48067 1-706): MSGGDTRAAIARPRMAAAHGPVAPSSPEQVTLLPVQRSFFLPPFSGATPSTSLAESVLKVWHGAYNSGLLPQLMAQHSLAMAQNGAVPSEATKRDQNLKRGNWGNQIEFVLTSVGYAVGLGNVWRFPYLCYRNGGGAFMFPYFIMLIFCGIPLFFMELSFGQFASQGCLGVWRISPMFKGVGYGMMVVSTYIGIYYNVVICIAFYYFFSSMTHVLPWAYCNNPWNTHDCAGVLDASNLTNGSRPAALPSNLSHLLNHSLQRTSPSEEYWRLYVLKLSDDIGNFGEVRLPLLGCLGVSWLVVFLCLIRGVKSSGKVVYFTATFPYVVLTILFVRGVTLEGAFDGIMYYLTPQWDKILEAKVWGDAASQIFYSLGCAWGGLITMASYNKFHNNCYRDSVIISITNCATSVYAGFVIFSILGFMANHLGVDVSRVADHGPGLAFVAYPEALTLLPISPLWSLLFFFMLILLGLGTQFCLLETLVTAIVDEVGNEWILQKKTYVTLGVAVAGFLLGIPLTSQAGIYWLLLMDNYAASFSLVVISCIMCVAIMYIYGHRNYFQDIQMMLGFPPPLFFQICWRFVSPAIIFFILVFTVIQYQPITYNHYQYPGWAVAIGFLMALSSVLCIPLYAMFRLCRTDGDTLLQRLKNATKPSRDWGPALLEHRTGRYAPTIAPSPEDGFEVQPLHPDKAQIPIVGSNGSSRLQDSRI
Assay: GlyT1 assay: 3H-glycine uptake into SK-N-MC cells (Cytostar-T format)
Assay type: cell-based
Settings: glycine uptake in human SK-N-MC cells endogenously expressing GlyT1; 500 nM glycine, 1% DMSO, signal recorded over 60 min
Summary of the method: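 Endogenous GlyT1 in human SK-N-MC cells, confluent after 16-18 h, in HBSS with 5 mM alanine. Compounds preincubated about 5-10 min, then 500 nM glycine (half ³H) added, 1% DMSO. Scintillation-proximity uptake recorded kinetically over 60 min; IC50 from linear-range slopes over 8 concentrations, nonspecific uptake defined with 10 μM RG-1678.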

Row | SMILES | IC50 [nM]
1 | C[C@H](Oc1ccc(S(C)(=O)=O)cc1C(=O)N1CC2CC2(c2nnc(C3CC3)o2)C1)C(F)(F)F (mixture of isomers) [Example 147, [1-(5-Cyclopropyl-[1,3,4]oxadiazol-2-yl)-3-aza-bicyclo[3.1.0]hex-3-yl]-[5-methanesulfonyl-2-(2,2,2-trifluoro-1-methyl-ethoxy)-phenyl]-methanone] | 18
2 | Cc1cnc(C23CC2CN(C(=O)c2cc(S(C)(=O)=O)ccc2O[C@@H](C)C(F)(F)F)C3)o1 (mixture of isomers) [Example 21, [5-Methanesulfonyl-2-(2,2,2-trifluoro-1-methyl-ethoxy)-phenyl]-[1-(5-methyl-oxazol-2-yl)-3-aza-bicyclo[3.1.0]hex-3-yl]-methanone] | 21
3 | CS(=O)(=O)c1ccc(-n2ccc(C(F)(F)F)n2)c(C(=O)N2CC3CC3(c3noc(C(F)(F)F)n3)C2)c1 (racemic) [Example 141, [5-Methanesulfonyl-2-(3-trifluoromethyl-pyrazol-1-yl)-phenyl]-[1-(5-trifluoromethyl-[1,2,4]oxadiazol-3-yl)-3-aza-bicyclo[3.1.0]hex-3-yl]-methanone] | 764
4 | C[C@H](Oc1ccc(C#N)cc1C(=O)N1CC2CC2(c2noc(C(F)(F)F)n2)C1)C(F)(F)F (single isomer, unassigned) [Example 90, 4-(2,2,2-Trifluoro-1-methyl-ethoxy)-3-[1-(5-trifluoromethyl-[1,2,4]oxadiazol-3-yl)-3-aza-bicyclo[3.1.0]hexane-3-carbonyl]-benzonitrile] | 2250
5 | CCS(=O)(=O)c1ccc(O[C@H](C)C(F)(F)F)c(C(=O)N2CC3CC3(c3nccc(C(F)(F)F)n3)C2)c1 (mixture of isomers) [Example 76, [5-Ethanesulfonyl-2-(2,2,2-trifluoro-1-methyl-ethoxy)-phenyl]-[1-(4-trifluoromethyl-pyrimidin-2-yl)-3-aza-bicyclo[3.1.0]hex-3-yl]-methanone] | 10
6 | C[C@@H](Oc1ccc(S(C)(=O)=O)cc1C(=O)N1CC2CC2(c2nnc(C(F)(F)F)o2)C1)C(F)(F)F (single isomer, unassigned) [Example 123, [5-Methanesulfonyl-2-(2,2,2-trifluoro-1-methyl-ethoxy)-phenyl]-[1-(5-trifluoromethyl-[1,3,4]oxadiazol-2-yl)-3-aza-bicyclo[3.1.0]hex-3-yl]-methanone] | 13
7 | C[C@@H](Oc1ccc(S(C)(=O)=O)cc1C(=O)N1CC2CC2(c2cc(C(F)(F)F)on2)C1)C(F)(F)F (single isomer, unassigned) [Example 51, [5-Methanesulfonyl-2-(2,2,2-trifluoro-1-methyl-ethoxy)-phenyl]-[1-(5-trifluoromethyl-isoxazol-3-yl)-3-aza-bicyclo[3.1.0]hex-3-yl]-methanone] | 461
8 | Cc1nc(C23CC2CN(C(=O)c2cc(S(C)(=O)=O)ccc2O[C@H](C)C(F)(F)F)C3)no1 (single isomer, unassigned) [Example 43, [5-Methanesulfonyl-2-(2,2,2-trifluoro-1-methyl-ethoxy)-phenyl]-[1-(5-methyl-[1,2,4]oxadiazol-3-yl)-3-aza-bicyclo[3.1.0]hex-3-yl]-methanone] | 251
9 | CCS(=O)(=O)c1ccc(O[C@@H](C)C(F)(F)F)c(C(=O)N2CC3CC3(c3nccc(C(F)(F)F)n3)C2)c1 (single isomer, unassigned) [Example 75, [5-Ethanesulfonyl-2-(2,2,2-trifluoro-1-methyl-ethoxy)-phenyl]-[1-(4-trifluoromethyl-pyrimidin-2-yl)-3-aza-bicyclo[3.1.0]hex-3-yl]-methanone] | 110
10 | C[C@@H](Oc1ccc(S(C)(=O)=O)cc1C(=O)N1CC2CC2(c2nnc(C3CC3)o2)C1)C(F)(F)F (mixture of isomers) [Example 146, [1-(5-Cyclopropyl-[1,3,4]oxadiazol-2-yl)-3-aza-bicyclo[3.1.0]hex-3-yl]-[5-methanesulfonyl-2-(2,2,2-trifluoro-1-methyl-ethoxy)-phenyl]-methanone] | 9
11 | C[C@@H](Oc1ccc(S(C)(=O)=O)cc1C(=O)N1CC2CC2(c2nnc(C3(C(F)(F)F)CC3)o2)C1)C(F)(F)F (single isomer, unassigned) [Example 150, [5-Methanesulfonyl-2-(2,2,2-trifluoro-1-methyl-ethoxy)-phenyl]-{1-[5-(1-trifluoromethyl-cyclopropyl)-[1,3,4]oxadiazol-2-yl]-3-aza-bicyclo[3.1.0]hex-3-yl}-methanone] | 232
12 | COC1(c2nc(C34CC3CN(C(=O)c3cc(S(C)(=O)=O)ccc3O[C@H](C)C(F)(F)F)C4)no2)CC1 (single isomer, unassigned) [Example 121, [5-Methanesulfonyl-2-(2,2,2-trifluoro-1-methyl-ethoxy)-phenyl]-{1-[5-(1-methoxy-cyclopropyl)-[1,2,4]oxadiazol-3-yl]-3-aza-bicyclo[3.1.0]hex-3-yl}-methanone] | 349
13 | C[C@H](Oc1ccc(S(C)(=O)=O)cc1C(=O)N1CC2CC2(c2nc(C(F)(F)F)no2)C1)C(F)(F)F (single isomer, unassigned) [Example 84, [5-Methanesulfonyl-2-(2,2,2-trifluoro-1-methyl-ethoxy)-phenyl]-[1-(3-trifluoromethyl-[1,2,4]oxadiazol-5-yl)-3-aza-bicyclo[3.1.0]hex-3-yl]-methanone] | 16
14 | CCS(=O)(=O)c1ccc(O[C@H](C)C(F)(F)F)c(C(=O)N2CC3CC3(c3cc(C(F)(F)F)on3)C2)c1 (single isomer, unassigned) [Example 107, [5-Ethanesulfonyl-2-(2,2,2-trifluoro-1-methyl-ethoxy)-phenyl]-[1-(5-trifluoromethyl-isoxazol-3-yl)-3-aza-bicyclo[3.1.0]hex-3-yl]-methanone] | 5
15 | Cc1nc(C23CC2CN(C(=O)c2cc(S(C)(=O)=O)ccc2O[C@@H](C)C(F)(F)F)C3)cs1 (mixture of isomers) [Example 25, [5-Methanesulfonyl-2-(2,2,2-trifluoro-1-methyl-ethoxy)-phenyl]-[1-(2-methyl-thiazol-4-yl)-3-aza-bicyclo[3.1.0]hex-3-yl]-methanone] | 22
16 | CCS(=O)(=O)c1ccc(O[C@H](C)C(F)(F)F)c(C(=O)N2CC3CC3(c3nccc(C(F)(F)F)n3)C2)c1 (single isomer, unassigned) [Example 77, [5-Ethanesulfonyl-2-(2,2,2-trifluoro-1-methyl-ethoxy)-phenyl]-[1-(4-trifluoromethyl-pyrimidin-2-yl)-3-aza-bicyclo[3.1.0]hex-3-yl]-methanone] | 113
17 | CCS(=O)(=O)c1ccc(O[C@@H](C)C(F)(F)F)c(C(=O)N2CC3CC3(c3noc(C(F)(F)F)n3)C2)c1 (mixture of isomers) [Example 40, [5-Ethanesulfonyl-2-(2,2,2-trifluoro-1-methyl-ethoxy)-phenyl]-[1-(5-trifluoromethyl-[1,2,4]oxadiazol-3-yl)-3-aza-bicyclo[3.1.0]hex-3-yl]-methanone] | 19
18 | Cc1cnc(C23CC2CN(C(=O)c2cc(S(C)(=O)=O)ccc2O[C@@H](C)C(F)(F)F)C3)o1 (single isomer, unassigned) [Example 23, [5-Methanesulfonyl-2-(2,2,2-trifluoro-1-methyl-ethoxy)-phenyl]-[1-(5-methyl-oxazol-2-yl)-3-aza-bicyclo[3.1.0]hex-3-yl]-methanone] | 181
19 | C[C@@H](Oc1ccc(S(C)(=O)=O)cc1C(=O)N1CC2CC2(c2csc(C(F)(F)F)n2)C1)C(F)(F)F (single isomer, unassigned) [Example 31, [5-Methanesulfonyl-2-(2,2,2-trifluoro-1-methyl-ethoxy)-phenyl]-[1-(2-trifluoromethyl-thiazol-4-yl)-3-aza-bicyclo[3.1.0]hex-3-yl]-methanone] | 1010
20 | CC(C)Oc1ccc(S(C)(=O)=O)cc1C(=O)N1CC2CC2(c2nc(C3(C(F)(F)F)CC3)no2)C1 (racemic) [Example 154, (2-Isopropoxy-5-methanesulfonyl-phenyl)-{1-[3-(1-trifluoromethyl-cyclopropyl)-[1,2,4]oxadiazol-5-yl]-3-aza-bicyclo[3.1.0]hex-3-yl}-methanone] | 72
21 | CCS(=O)(=O)c1ccc(O[C@H](C)C(F)(F)F)c(C(=O)N2CC3CC3(c3nccc(C(F)(F)F)n3)C2)c1 (single isomer, unassigned) [Example 78, [5-Ethanesulfonyl-2-(2,2,2-trifluoro-1-methyl-ethoxy)-phenyl]-[1-(4-trifluoromethyl-pyrimidin-2-yl)-3-aza-bicyclo[3.1.0]hex-3-yl]-methanone] | 7
22 | C[C@@H](Oc1ccc(S(C)(=O)=O)cc1C(=O)N1CC2CC2(c2noc(C3CC3)n2)C1)C(F)(F)F (mixture of isomers) [Example 41, [1-(5-Cyclopropyl-[1,2,4]oxadiazol-3-yl)-3-aza-bicyclo[3.1.0]hex-3-yl]-[5-methanesulfonyl-2-(2,2,2-trifluoro-1-methyl-ethoxy)-phenyl]-methanone] | 6
